Test results as given in patent publication US5840696A (priority 1997, dated 1998).

How the values were obtained:
[1] = system: systemic vascular bed of the anesthetized rat; details: literature (18); cited from earlier work
[2] = system: conscious Sprague-Dawley rats; assay: intracerebroventricular (i.c.v.) injection in conscious rats: cardiovascular and renal responses; type: in vivo, rat
Method: Abbreviations are HR, heart rate; MAP, mean arterial pressure; V, urine flow rate; and UNa V, urinary sodium excretion. Statistical significance within each group was determined by a repeated measures analysis of variance followed by a Bonferroni multiple comparisons test; asterisks (a, b, or c) denote a significant change (p<0.05) from control within each group.
(§1) Anesthetized male Sprague-Dawley rats (275-300 g, Sprague-Dawley, Inc., Indianapolis, Ind.) were implanted with chronic arterial and venous cannulas and a bladder catheter in accordance with previously published methods (10, 12). For experiments in which drugs were administered i.c.v., a stainless steel cannula was stereotaxically implanted into the right lateral ventricle of rats under anesthesia at least 5-7 days prior to experimentation (11). On the morning of the study rats were placed in a rat holder which permits forward and backward movement and allows for collection of urine from the bladder catheter. Conscious rats were then infused i.v. with isotonic saline (50 μl/min) for the duration of the experiment. The arterial cannulae was then flushed and attached to a pressure transducer (Statham P23Db) and the urinary bladder catheter led to a collection beaker. After equilibration and stabilization of urine flow rate and urinary sodium excretion (approximately 2-3 hours) the experimental protocol described in each figure legend commenced. Intravenous and i.c.v. stock solutions of nociceptin and nor-binaltorphimine were prepared fresh in isotonic saline vehicle. […] Animal experimentation and care procedures were in accordance with the National Institutes of Health guidelines for the care and use of animals.

[3] = system: forskolin-stimulated cAMP production; details: literature (4,5); cited from earlier work
conscious rats = assay: lower-dose i.v. infusion of nociceptin (50 and 166 nanog/Kg/min) in conscious rats, renal function; type: in vivo, rat
From the text: These marked increases in urine flow rate occurred at doses approximately 120 fold lower than previously reported by Kapusta et al. (17). In order to confirm these more recent and complete studies of the present invention, nociceptin was obtained from three commercially available sources, Phoenix Pharmaceutical, Bachem Chemical and Peninsula Laboratories. […] Nociceptin from each of the sources above was studied at a single infusion rate in each group of six rats. […] These increases in urine flow were accompanied by a decrease in the excretion of urinary sodium (UNA V) as reported earlier (17).

pulmonary vascular bed = pulmonary vascular bed of the intact-chest anesthetized rat under elevated pulmonary vasomotor tone; type: in vivo; details: intralobar arterial bolus injections
Method: Since pulmonary blood flow and left atrial pressure were held constant, the decreases in pulmonary artery pressure directly reflect decreases in pulmonary vascular resistance. N=number of animals.
Male Charles River rats (260-340 go) were anesthetized with an intraperitoneal injection of pentobarbital sodium (30 mg/kg), and allowed to breath air enriched with oxygen through an endotracheal tube inserted by tracheotomy. The anesthetized animals were strapped in a supine position to a fluoroscopic table, and catheters were inserted in femoral blood vessels. A specially designed triple lumen balloon perfusion catheter was constructed (Nu-Med, Hopkinton, N.Y.). This catheter is 145 mm in length, […]. and with specially curved tip to facilitate passage through the right heart and main pulmonary artery into the artery supplying the right lower lung lobe. At the distal tip of the catheter is a pressure port through which a 0.25 mm soft tip coronary artery angioplasty guide wire is inserted. […] Mean pressure in the right lower lobe artery and the aorta were continuously recorded. […] Since this catheter perfuses approximately one-sixth of the lung, as determined by measuring lung weight, this perfusion rate approximate physiologic flow for that lung area, i.e. at least 15-20% of the 75-85 ml/min normal total pulmonary blood flow of the rat. […]

rat kidney = assay: site of infusion (right renal artery, suprarenal and infrarenal aorta, intravenous) and urine flow rate; type: in vivo; details: direct right renal arterial administration
[4] = system: conscious Sprague-Dawley rats; assay: intravenous infusion of nociceptin in conscious chronically instrumented rats: cardiovascular and renal responses; type: in vivo, rat; details: i.v. infusion 20 μg/kg/min
Method: as §1
Statistical significance was determined by a repeated measure analysis of variance followed by a Bonferroni multiple comparisons test; asterisks denote a significant difference (p<0.05) from the respective group control.

[5] = system: constitutive nitric oxide synthase (cNOS); assay: influence of L-NAME on urine flow rate responses in conscious rats; details: L-NAME 30 mg/Kg i.v., 45 min before infusion
[6] = system: isolated feline renal, femoral, mesenteric and carotid arterial rings; assay: isolated feline arterial rings (with endothelium) precontracted with phenylephrine
Method: Additional studies were performed in vitro to determine the contribution of changes in regional hemodynamics in the systemic vasodilator response to nociceptin.

[7] = i.v. infusion 50 and 166 nanog/Kg/min

Structure (SMILES): CC(C)C[C@H](NC(=O)[C@H](CCCCN)NC(=O)[C@H](CCCN=C(N)N)NC(=O)[C@H](C)NC(=O)[C@H](CO)NC(=O)[C@H](CCCCN)NC(=O)[C@H](CCCN=C(N)N)NC(=O)[C@H](C)NC(=O)CNC(=O)[C@@H](NC(=O)[C@H](Cc1ccccc1)NC(=O)CNC(=O)CNC(=O)[C@@H](N)Cc1ccccc1)[C@@H](C)O)C(=O)N[C@@H](C)C(=O)N[C@@H](CC(N)=O)C(=O)N[C@@H](CCC(N)=O)C(=O)O [nociceptin]
- decrease of systemic arterial pressure, sensitivity to naloxone [1]: naloxone-insensitive
- tachyphylaxis to the cardiovascular and renal responses ([2]; consecutive i.c.v. injection of the same dose (1, 10 or 30 μg)): did not develop
- time of peak diuresis ([2]; i.c.v. 1 μg): 30 min
- time of peak diuresis ([2]; i.c.v. 10 μg): 40 min
- renal response (urine flow rate and urinary sodium excretion) ([2]; i.c.v. 10 μg, naive conscious rats): concurrent diuretic and antinatriuretic response
- onset of diuresis compared with dynorphin A ([2]; i.c.v. 10 μg, p<0.05 at time 20 min): significantly delayed
- diuretic response ([2]; i.c.v. 1, 10 or 30 μg): profound diuretic response
- heart rate, mean arterial pressure and urinary sodium excretion ([2]; i.c.v. 1, 10 or 30 μg, versus group control): significant (p<0.05) decreases
- duration of bradycardia ([2]; i.c.v., all doses): approximately 30 minutes
- duration of hypotensive response ([2]; i.c.v., all doses): ~40 min
- onset of bradycardia and hypotensive response ([2]; i.c.v., all doses (1, 10, 30 μg)): 1 to 3 min
- minimum effective i.c.v. dose to evoke a change in urine flow rate and urinary sodium excretion ([2]; i.c.v., preliminary studies): 1 µg
- forskolin-stimulated cAMP production [3]: inhibits forskolin-stimulated cAMP production
- doses producing increases in urine flow rate, lower than in preliminary studies / Kapusta et al. (17) (conscious rats; i.v. infusion): approximately 120 fold
- baseline systemic arterial pressure and heart rate (conscious rats; [7]): did not alter baseline systemic arterial pressure and heart rate
- duration of renal responses (conscious rats; [7]): approximately 90 min
- excretion of urinary sodium (UNA V) (conscious rats; [7]): decrease
- time of peak renal effect after start of infusion (conscious rats; [7]): 30 min
- urine flow rate (V) (conscious rats; i.v. infusion 50 and 166 nanog/Kg/min, conscious rats): dose-dependent increase
- pulmonary vasodilator response after L-NAME and L-NIO (pulmonary vascular bed): inhibit
- effect on the pulmonary vascular bed (pulmonary vascular bed; tone elevated with U46619): dilates the pulmonary vascular bed
- left or right ureteral flow rate (rat kidney): did not increase
- behavioral or sedative effects [4]: did not produce any behavioral or sedative effects
- duration of renal responses [4]: approximately 70 min
- heart rate [4]: did not alter heart rate
- time of peak changes in renal responses after start of infusion [4]: approximately 40 min
- urinary sodium excretion ([4]; conscious rats): decrease
- urine flow rate ([4]; conscious rats): profound increase
- mean arterial pressure ([4]; sustained throughout infusion): slight, but statistically significant decrease
- increase in urine flow rate (V) in response to i.v. infusion after L-NAME [5]: significantly inhibited
- relaxation of arterial rings [6]: ability to relax
